We go through 43 compounds from publication PMC5232348, “Molecular and Functional Characterization of Three Odorant-Binding Protein from Periplaneta americana” (PLoS ONE, 2017).

Where a name gives a salt, the structure may show the parent alone. Read-outs that look alike come from different tables or passages of the source. Bounds are passed on as bounds.

The target of test [1] is PameOBP1 (Periplaneta americana, UniProt B6E9U7). Kind of test: Competitive fluorescence binding assay (1-NPN displacement), recombinant PameOBP1. The text has this:
(§1) The PameOBPs were expressed by using Escherichia coli expression system. To generate properly folded protein, the signal peptide predicted by SignalIP 4.1 [18] was removed. The two PameOBPs were amplified by gene special primers (S1 Table) with the cDNA as the template. The purified PCR products were ligated into expression vector pGEX-4T-1 using In-Fusion® HD Cloning Kit (Clontech, Mountain View, CA) according to the manufacturer’s instructions. The recombinant plasmid was transformed into E. coli BL21 (DE3) cells, and then expression and purification was performed according to a previously reported protocol. Recombinant proteins in the supernatant were purified by an affinity chromatography column GSTrap FF (GE Healthcare, Piscataway, NJ, USA). The GST tags were cleaved from recombinant proteins using 400 μL of thrombin (1U/μL) while loaded on GSTrap FF column at 25°C for 10 h and allowed 12 h. After that, the recombinant proteins were eluted with PBS buffer. Finally, the eluted proteins were desalted using HiTrap Desalting (GE Healthcare), lyophilized, and stored at −80°C until use.
(§2) Emission fluorescence spectra were measured on a Hitachi F-4500 fluorescence spectrophotometer following our previous studies. Firstly, dissociation constants of the PameOBPs for N-phenyl-1-naphtylamine (1-NPN) were calculated to determine the suitability of 1-NPN as a fluorescence reporter. […] The binding data were analyzed following our previous studies.

Test [2] concerns the target PameOBP2 (Periplaneta americana, UniProt B6E9U8). Kind of test: Competitive fluorescence binding assay (1-NPN displacement), recombinant PameOBP2.
Text: as §1, §2

Test [3] deals with PameOBP3 (Periplaneta americana, UniProt B6E9U9). Kind of test: Competitive fluorescence binding assay (1-NPN displacement), recombinant PameOBP3.
Text: as §1, §2

Where [4] appears, read: 2 μM 1-NPN as fluorescent reporter, competitor 0.25–2.5 μM or 2–40 μM, read-out: PameOBP1 IC50.
[5] abbreviates: 2 μM 1-NPN as fluorescent reporter, competitor 0.25–2.5 μM or 2–40 μM, read-out: PameOBP1 Ki.
Setting [6] is: 2 μM 1-NPN as fluorescent reporter, competitor 0.25–2.5 μM or 2–40 μM, read-out: PameOBP2 IC50.
Where [7] appears, read: 2 μM 1-NPN as fluorescent reporter, competitor 0.25–2.5 μM or 2–40 μM, read-out: PameOBP2 Ki.
The mark [8] stands for this setting: 2 μM 1-NPN as fluorescent reporter, competitor 0.25–2.5 μM or 2–40 μM, read-out: PameOBP3 Ki.
[9] abbreviates: PameOBP1 Ki, 2 μM 1-NPN as fluorescent reporter, competitor 0.25–2.5 μM or 2–40 μM.
[10] abbreviates: PameOBP2 Ki, 2 μM 1-NPN as fluorescent reporter, competitor 0.25–2.5 μM or 2–40 μM.

Chain of PameOBP1 (B6E9U7 entry or part of it): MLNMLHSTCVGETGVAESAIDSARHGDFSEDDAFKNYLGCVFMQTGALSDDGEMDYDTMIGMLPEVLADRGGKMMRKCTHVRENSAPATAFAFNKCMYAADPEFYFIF
Chain of PameOBP3 (B6E9U9 entry or part of it): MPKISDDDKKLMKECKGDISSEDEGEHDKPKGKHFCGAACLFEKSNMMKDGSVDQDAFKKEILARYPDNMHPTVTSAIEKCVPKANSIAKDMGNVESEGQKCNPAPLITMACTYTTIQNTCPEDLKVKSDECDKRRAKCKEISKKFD
Chain of PameOBP2 (B6E9U8 entry or part of it): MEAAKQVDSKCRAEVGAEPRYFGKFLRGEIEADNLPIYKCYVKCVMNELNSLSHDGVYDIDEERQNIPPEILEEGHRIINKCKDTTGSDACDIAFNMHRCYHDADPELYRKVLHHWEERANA

Take `C=CC(C)(O)CCC=C(C)CCC=C(C)C` (mixture of isomers) [Nerolidol]: the concentration for half-maximal inhibition (IC50) – broadly, the concentration that inhibits the measured activity by half – was above 40 µM in test [1] (setting [4]) and 32.9 ± 4.21 µM in test [2] (setting [6]). For the same compound, the Ki (usually a dissociation constant, usually derived from enzyme kinetics or from competition with a known ligand) in test [1] (setting [5]) was above 40 µM; in test [2] (setting [7]), 26.6 ± 2.79 µM.

With `CCCCCCO` [1-hexanol], the Ki in test [3] (setting [8]), in test [1] (setting [5]) and in test [2] (setting [7]) was above 40 µM throughout.

In the case of `CCCCCCCCCCCC(C)=O` [2-Tridecanone], the IC50 worked out at 2.02 ± 0.16 µM in test [1] (setting [4]) and 1.52 ± 0.16 µM in test [2] (setting [6]). Besides, the values for the inhibition constant (Ki) in test [1] (setting [5]) and in test [2] (setting [7]) were 1.85 ± 0.17 µM and 1.23 ± 0.08 µM, respectively.

Turning to `CCCCCC(C)O` (centres unmarked) [2-heptanol], the inhibitory constant (Ki) in test [3] (setting [8]), in test [1] (setting [5]) and in test [2] (setting [7]) was above 40 µM throughout.

Regarding `CCCCCC(C)=O` [2-heptanone], the Ki in test [3] (setting [8]), in test [1] (setting [5]) and in test [2] (setting [7]) was above 40 µM in each case.

For `CCCCC(C)=O` [2-hexanone], the inhibition constant Ki in test [3], in test [1] (setting [9]) and in test [2] (setting [10]) was above 40 µM each time.

Consider `CCCCCCCCC(CO)CCCCCC` (centres unmarked) [2-hexyl-1-decanol], for which the Ki in test [3] (setting [8]), in test [1] (setting [5]) and in test [2] (setting [7]) was above 40 µM throughout.

Regarding `CCCCCCCCCCCCCC(C)=O` [2-pentadecanone], the inhibitory constant (Ki) in test [3] (setting [8]), in test [1] (setting [5]) and in test [2] (setting [7]) was above 40 µM in each case.

Consider `CCCC(O)CC` (centres unmarked) [3-hexanol], for which the inhibitory constant (Ki) in test [3] (setting [8]), in test [1] (setting [5]) and in test [2] (setting [7]) was above 40 µM each time.

Regarding `CCCC(=O)CC` [3-hexanone], the inhibitory constant (Ki) in test [3] (setting [8]), in test [1] (setting [5]) and in test [2] (setting [7]) was above 40 µM throughout.

`CC(=O)CCC=C(C)C` [6-methyl-5-hepten-2-one]: the Ki in test [3], in test [1] (setting [9]) and in test [2] (setting [10]) was above 40 µM throughout.

Regarding `C[C@@H]1CC[C@H]2C(C)(C)[C@H]3C[C@@]12CC[C@@]3(C)O` [(+)-cedrol], the Ki in test [3], in test [1] (setting [9]) and in test [2] (setting [10]) was above 40 µM throughout.

As for `CC(=O)/C=C/C1=C(C)CCCC1(C)C` [Beta- ionone], the IC50 in test [1] stood at 15.8 ± 2.1 µM; in test [2], 15 ± 1.1 µM. Moreover, the inhibition constant (Ki) in test [1] (setting [9]) was determined as 14.4 ± 1.6 µM; in test [2] (setting [10]), 12.2 ± 0.9 µM.

As to `CC/C=C\CCO` [Cis-3-hexenol], the Ki in test [3], in test [1] (setting [9]) and in test [2] (setting [10]) was above 40 µM in each case.

`CC/C=C\CCOC(=O)CCCCC` [Cis-3-hexenyl hexanoate]: the IC50 in test [1] (setting [4]) is 24.6 ± 1.9 µM; in test [2] (setting [6]), above 40 µM. Moreover, the Ki in test [1] (setting [5]) was 22.5 ± 2.6 µM; in test [2] (setting [7]) it was above 40 µM.

With `CC(C)=CCC/C(C)=C/CC/C(C)=C/CO` [Farnesol], the half-inhibitory concentration (IC50) in test [1] (setting [4]) was found to be 1.01 ± 0.09 µM; in test [2] (setting [6]) it was 0.65 ± 0.07 µM. Moreover, the Ki in test [1] (setting [5]) turned out to be 0.92 ± 0.06 µM; in test [2] (setting [7]), 0.53 ± 0.06 µM.

`CC(=O)OC/C=C(\C)CCC=C(C)C` [Geranyl acetate]: the half-inhibitory concentration (IC50) in test [1] (setting [4]) is above 40 µM; in test [2] (setting [6]), 40 ± 3.16 µM. Also, the Ki in test [1] (setting [5]) is above 40 µM; in test [2] (setting [7]) it was 32.6 ± 2.95 µM.

With `CC(=O)CC/C=C(\C)CCC=C(C)C` [Geranylacetone], the figures for the IC50 in test [1] (setting [4]) and in test [2] (setting [6]) were above 40 µM and 8.62 ± 0.68 µM, respectively. The inhibitory constant (Ki) in test [1] (setting [5]) was above 40 µM; in test [2] (setting [7]) it was 6.97 ± 0.72 µM.

For the compound `CCCCCCCCCCCCCC` [Tetradecane], the IC50 in test [1] (setting [4]) was above 40 µM; in test [2] (setting [6]), 1.19 ± 0.09 µM. Moreover, the Ki in test [2] (setting [7]) stood at 0.96 ± 0.1 µM.

`C=CC(C)(O)CC/C=C(\C)CCC=C(C)C` (stereo not drawn) [Trans-nerolidol]: the IC50 was above 40 µM in test [1] (setting [4]) and 15.6 ± 1.3 µM in test [2] (setting [6]). For the same compound, the results for the inhibition constant Ki in test [1] (setting [5]) and in test [2] (setting [7]) were above 40 µM and 12.6 ± 0.98 µM, respectively.

As for `CC(=O)c1ccccc1` [acetophenone], the inhibitory constant (Ki) in test [3] (setting [8]), in test [1] (setting [5]) and in test [2] (setting [7]) was above 40 µM throughout.

Consider `CC1=CC[C@H](C(C)C)C=C1` [alpha-phellandrene], for which the inhibition constant Ki in test [3], in test [1] (setting [9]) and in test [2] (setting [10]) was above 40 µM throughout.

As to `O=Cc1ccccc1` [benzaldehyde], the inhibitory constant (Ki) in test [3], in test [1] (setting [9]) and in test [2] (setting [10]) was above 40 µM each time.

In the case of `CC(=O)OCc1ccccc1` [benzyl acetate], the Ki in test [3] (setting [8]), in test [1] (setting [5]) and in test [2] (setting [7]) was above 40 µM in each case.

In the case of `OCc1ccccc1` [benzyl alcohol], the Ki in test [3], in test [1] (setting [9]) and in test [2] (setting [10]) was above 40 µM throughout.

Take `C=C1CC/C=C(\C)CC[C@@H]2[C@@H]1CC2(C)C` [beta-caryophyllene]: the Ki in test [3], in test [1] (setting [9]) and in test [2] (setting [10]) was above 40 µM each time.

`CCCCOC(C)=O` [butyl acetate]: the Ki in test [3], in test [1] (setting [9]) and in test [2] (setting [10]) was above 40 µM throughout.

Turning to `CCCCOC=O` [butyl formate], the Ki in test [3] (setting [8]), in test [1] (setting [5]) and in test [2] (setting [7]) was above 40 µM each time.

As to `C=C1C2CCC(C2)C1(C)C` (centres unmarked) [camphene], the inhibition constant (Ki) in test [3] (setting [8]), in test [1] (setting [5]) and in test [2] (setting [7]) was above 40 µM throughout.

Consider `CCC/C=C\CO` [cis-2-hexen-1-ol], for which the Ki in test [3], in test [1] (setting [9]) and in test [2] (setting [10]) was above 40 µM each time.

On to `CC/C=C\CC=O` [cis-3-hexenal], for which the inhibition constant (Ki) in test [3] (setting [8]), in test [1] (setting [5]) and in test [2] (setting [7]) was above 40 µM throughout.

With `CC/C=C\CCOC(C)=O` [cis-3-hexenyl acetate], the inhibition constant Ki in test [3] (setting [8]), in test [1] (setting [5]) and in test [2] (setting [7]) was above 40 µM in each case.

For `CC/C=C\CCOC(=O)CCC` [cis-3-hexenyl butyrate], the Ki in test [3] (setting [8]), in test [1] (setting [5]) and in test [2] (setting [7]) was above 40 µM each time.

As for `CC(C)c1ccccc1` [cumene], the inhibitory constant (Ki) in test [3], in test [1] (setting [9]) and in test [2] (setting [10]) was above 40 µM in each case.

With `CCCCCCCCCC=O` [decanal], the Ki in test [3] (setting [8]), in test [1] (setting [5]) and in test [2] (setting [7]) was above 40 µM in each case.

For the compound `CCCCCCCCCCCC` [dodecane], the inhibition constant Ki in test [3] (setting [8]), in test [1] (setting [5]) and in test [2] (setting [7]) was above 40 µM in each case.

As for `CCOC(=O)c1ccccc1` [ethyl benzoate], the inhibition constant Ki in test [3], in test [1] (setting [9]) and in test [2] (setting [10]) was above 40 µM throughout.

For `CCCC(=O)OCC` [ethyl butyrate], the inhibitory constant (Ki) in test [3] (setting [8]), in test [1] (setting [5]) and in test [2] (setting [7]) was above 40 µM each time.

In the case of `CCOC(=O)CC` [ethyl propionate], the Ki in test [3] (setting [8]), in test [1] (setting [5]) and in test [2] (setting [7]) was above 40 µM throughout.

As to `CCc1ccccc1` [ethylbenzene], the Ki in test [3], in test [1] (setting [9]) and in test [2] (setting [10]) was above 40 µM throughout.

Regarding `CC12CCC(CC1)C(C)(C)O2` [eucalyptol], the Ki in test [3] (setting [8]), in test [1] (setting [5]) and in test [2] (setting [7]) was above 40 µM throughout.

`CC(C)=CCC/C(C)=C/CO` [geraniol]: the inhibition constant (Ki) in test [3], in test [1] (setting [9]) and in test [2] (setting [10]) was above 40 µM each time.

With Farnesene, the inhibition constant (Ki) in test [1] (2 μM 1-NPN as fluorescent reporter, competitor 0.25–2.5 μM or 2–40 μM, listed as farnesene, read-out: PameOBP1 Ki) is below 2 µM; in test [1] (setting [5]) it was 1.04 ± 0.1 µM; in test [2] (2 μM 1-NPN as fluorescent reporter, competitor 0.25–2.5 μM or 2–40 μM, listed as farnesene, read-out: PameOBP2 Ki), below 2 µM; in test [2] (setting [7]), 0.52 ± 0.03 µM. Further, the half-inhibitory concentration (IC50) in test [1] (setting [4]) stood at 1.14 ± 0.12 µM; in test [2] (setting [6]), 0.64 ± 0.08 µM.
